The source of these data is patent publication US4526898A, “Antihypertensive 4-(2-imidazolin-2-yl-amino)-2-methyl-indazole” (priority 1983, dated 1985).

One data set concerns conscious cats. The data set is described as follows: Behavioural observation in conscious cats. The data set is classed as in vivo, cat.
The subject of data set [1] is Mouse. The data set is described as follows: Inhibition of heat-induced tail flick. The data set is classed as in vivo. Conditions: po, read-out: Effective dose: 50% inhibition of heat-induced tail flick. Here is the method: (§1) All tests were carried out under identical conditions according to standard testing methods. The animal species used, the route of administering the material to be tested, the type of test and the results obtained are shown in Table I hereunder.

A short description of data set [2]: Blood-brain barrier penetration. To be noted: summary statement.
Data set [3] relates to Mouse. The data set is described as follows: Doubling of ethanol sleeping time (CNS activity). Type of data set: in vivo. To be noted: po, read-out: Effective dose: Double ethanol sleeping time. As for the experimental part: as §1
In data set [4] the test system is drug-metabolising enzymes in the liver. The data set is described as follows: Induction of drug-metabolising enzymes in the liver. Conditions: summary statement.
The next data set in a line: Toxicity LD50 in rat. Conditions: in vivo. As for the experimental part: (§2) Toxicity values were determined applying identical standard methods. The data obtained are listed herebelow in Table II showing LD50 values as mg/kg body weight.
Data set [5] deals with Mouse. The data set is described as follows: Doubling of hexobarbitone sodium sleeping time (CNS activity). The data set is classed as in vivo. Conditions: po, read-out: Effective dose: Double hexobarbitone sodium sleeping time. Here is the method:
as §1

In data set [6] the test system is extra-cellular calcium controlled α1s -adrenoceptors. The data set is described as follows: Adrenoceptor activity, α1s. Conditions: summary statement.
The subject of data set [7] is Mouse. The data set is described as follows: Reduction in exploratory behaviour. Conditions: po, read-out: Effective dose: 50% reduction in exploratory behaviour. The data set is classed as in vivo. As for the experimental part: as §1
In data set [8] the test system is Mouse. The data set is described as follows: Reduction of 5HTP-induced head twitches. The data set is classed as in vivo. Conditions: sc, read-out: Effective dose: 50% reduction of 5HTP-induced head twitches. Here is the method: as §1
The subject of data set [9] is Mouse. The data set is described as follows: Inhibition of acetic acid-induced writhing. Type of data set: in vivo. Conditions: po, read-out: Effective dose: 50% inhibition of acetic acid-induced writhing. Here is the method: as §1
(In general: In writhing tests, fewer writhes than in controls are read as antinociception.)

The test system of data set [10] is Rat. The data set is described as follows: Doubling of chloralhydrate sleeping time (CNS activity). The data set is classed as in vivo. Conditions: po, read-out: Effective dose: Double chloralhydrate sleeping time. Here is the method:
as §1

Data set [11] has as its system adrenaline vasopressor effect. The data set is described as follows: Adrenaline antagonism (adrenaline reversal) in anaesthetised cats. Type of data set: in vivo, cat. To be noted: adrenaline i.v., 5 to 10 mg/kg b.w. intraduodenally. The source says:
Experimental hypertension was induced in anaesthetised cats by administering (i.v.) adrenaline.

The test system of data set [12] is nephrogenic GOLDBLATT hypertensive rats. The data set is described as follows: Antihypertensive activity in nephrogenic GOLDBLATT hypertensive rats. Type of data set: in vivo, rat. To be noted: for ED50: Rattus norvegicus, po, nephrogenic GOLDBLATT hypertensive rats. Here is the method: (§3) Antihypertensive activities for Sgd 101/75 of the invention and Sgd 230/75 of U.S. Pat. No. 4,036,976 were determined with nephrogenic GOLDBLATT hypertensive rats.

Assay in data set [13]: as above
Type of data set: in vivo, rat. Conditions: in vivo, po; GOLDBLATT hypertensive rats, p.o.; LD50 rat p.o.; read-out: therapeutic index LD50 /ED50. Here is the method: as §3

Data set [14] has as its system Rat. The data set is described as follows: Reduction in tetrabenazine-induced ptosis. Type of data set: in vivo. Conditions: po, read-out: Effective dose: 50% reduction in tetrabenazine-induced ptosis. Here is the method: as §1
For the next data set, the system named is α1 -adrenoceptors. The data set is described as follows: Adrenoceptor activity, α1. Conditions: summary statement.
For the next data set, the system named is α2 -adrenoceptors. The data set is described as follows: Adrenoceptor activity, α2. To be noted: summary statement.
The next data set can be described thus: Toxicity LD50 in mouse. Conditions: in vivo. Here is the method: as §2
For data set [15], the system named is genetically fixed hypertension rats. To be noted: p.o., prior art background; cited from earlier work.

Structures are written as SMILES. Where two headings read alike, the source gives them in different places.

As a reminder, the LD50 is the dose expected to kill half of the subjects tested. In the case of `Cn1cc2c(NC3=NCCN3)cccc2n1` [Sgd 101/75, 4-(2-imidazolin-2-yl-amino)-2-methyl-indazole], in the data set with conscious cats (4 and 10 mg/kg i.p.), the “Behavioural changes / CNS depression” value is given as “no apparent behavioural changes”. For the same molecule, the ED50 is more than 100 mg/kg with Mouse [1]; 72 mg/kg in the data set on Mouse [7]; 28 mg/kg in the data set on Mouse [8]; 4.5 mg/kg with Mouse [9]; 4.2 mg/kg in [12]; 33 mg/kg in the data set with Rat [14] (Rattus norvegicus). The “Penetration of the blood-brain barrier” value in data set [2] is “does not readily penetrate the blood-brain barrier”. In addition, the ED (2-fold sleeping time) with Mouse [3], with Mouse [5] and in the data set with Rat [10] was more than 100 mg/kg throughout. Further, in [4], the “Induction of drug-metabolising enzymes in the liver” value was “does not induce drug-metabolising enzymes in the liver”. The LD50 in “Toxicity LD50 in rat” (iv) stood at 69 mg/kg; in “Toxicity LD50 in rat” (po), 3220 mg/kg; in the data set “Toxicity LD50 in mouse” (iv), 58 mg/kg; in the data set “Toxicity LD50 in mouse” (po), 3900 mg/kg. The “Activity on α1s -adrenoceptors” value in data set [6] was “complete and highly specific agonist”. Moreover, the “Effect on adrenaline vasopressor effect (adrenaline reversal)” value in data set [11] is given as “conversion of the vasopressor effect of adrenaline into a depressor response”. For the same molecule, in data set [12] (relative to Sgd 230/75, taking into account LD50 values (rat, p.o.)), the “anti-hypertensive activity relative to the prior art compound” value is given as “about 190%”. Further, in data set [13], the selectivity ratio turned out to be 767. In addition, the “Activity on α1 -adrenoceptors” value in the data set with α1 -adrenoceptors is recorded as “partial agonist”. For the same molecule, the “Activity on α2 -adrenoceptors” value in the data set on α2 -adrenoceptors was “complete antagonist”.
`Clc1cccc(Cl)c1N=C1NCCN1` [Clonidine, 2-((2,6-dichloro-phenyl)-imino)-imidazolidine, reference compound]: in the data set with conscious cats (1 mg/kg i.p.), the “Behavioural changes / CNS depression” value is “signs of CNS depression”. Moreover, the ED50 in the data set with Mouse [1] came out at 5 mg/kg; in the data set on Mouse [7], 0.12 mg/kg; in the data set on Mouse [8] it was 0.028 mg/kg; with Mouse [9] it was 0.07 mg/kg; with Rat [14] (Rat, p.o.) it was 0.3 mg/kg. In addition, the ED (2-fold sleeping time) worked out at 0.02 mg/kg in the data set with Mouse [3], 0.3 mg/kg in the data set on Mouse [5] and 0.05 mg/kg in the data set with Rat [10].
Take `Cn1ncc2c(NC3=NCCN3)cccc21` [Sgd 230/75, 4-(2-imidazolin-2-yl-amino)-1-methyl-indazole, reference compound]: the LD50 in the data set “Toxicity LD50 in rat” (iv) was found to be 90 mg/kg; in “Toxicity LD50 in rat” (po) it was 1200 mg/kg; in the data set “Toxicity LD50 in mouse” (iv), 22 mg/kg; in “Toxicity LD50 in mouse” (po), 600 mg/kg. Moreover, the “therapeutic index LD50 /ED50” value in data set [15] is reported as 800. Moreover, in data set [12], the ED50 was determined as 3 mg/kg. The selectivity ratio in [13] is 400.
